Values quoted from earlier work as cited in patent US20100323978A1, “Non-aqueous oil delivery system for ophthalmic drugs” (priority 2009, published 2010).
Counter-ions that a name gives are not always drawn. Like-named read-outs stand apart in the source and are kept apart here.

Legend:
[1] = warning label
[2] = tested on: rabbits; details: 10 micro Liters eye drop
[3] = tested on: rabbit eyes; details: aqueous suspension injected into the eyes for three days
[4] = 0.15 Molar suspended in sesame seed oil

Compound: CN(C)CCOC(=O)C(c1ccccc1)C1(O)CCCC1 (centres unmarked) [Cyclopentolate HCl]
- stability of powder [1]: not stable at room temperature

Compound: CNC[C@H](O)c1cccc(O)c1 [phenylephrine HCl]
- mydriasis in the rabbit [2, 4]: ineffective
- mydriasis in the rabbit ([2]; 0.5 Molar suspended in sesame seed oil): slightly effective

Compound: CNC[C@H](O)c1cccc(O)c1 [phenylephrine free base]
- mydriasis in the rabbit [2, 4]: produced mydriasis

Compound: alpha-hydroxy-testosterone
- intra-ocular pressure [3]: decreased
